Experimental data taken from patent publication US20070128217A1 (priority 2003, published 2007).

Tests used:
[1] = system: antibodies in sera from SARS patients (sera 1a, 1b, 2, 6, 37, 62, London, SARS-yellow, SARS-green); assay type: binding, human; set-up: Binding of serum 6 to linear peptides of protein X1 of SARS-CoV Urbani / Binding of serum 37 to linear peptides of protein X1 of SARS-CoV Urbani / Binding of serum 6 to looped/cyclic peptide (PEPSCAN-ELISA) / Binding of serum 37 to looped/cyclic peptide (PEPSCAN-ELISA) / Binding of serum 37 to looped/cyclic peptides of protein X1 of SARS-CoV Urbani / Binding of serum 6 to linear peptides of protein X2 / Binding of serum 37 to linear peptides of protein X2 / Binding of serum 37 to looped/cyclic peptides of protein X2 of SARS-CoV Urbani / Binding of serum 6 to linear peptides of protein M of SARS-CoV Urbani / Binding of serum 37 to linear peptides of protein M of SARS-CoV Urbani / Binding of serum 6 to looped/cyclic peptides of protein M of SARS-CoV Urbani / Binding of serum 37 to looped/cyclic peptides of protein M of SARS-CoV Urbani / Binding of serum 6 to linear peptides of protein X3 of SARS-CoV Urbani / Binding of serum 37 to linear peptides of protein X3 of SARS-CoV Urbani / Binding of serum 37 to looped/cyclic peptides of protein X3 of SARS-CoV Urbani / Binding of serum 6 to linear peptides of protein X4 of SARS-CoV Urbani / Binding of serum 37 to linear peptides of protein X4 of SARS-CoV Urbani / Binding of serum 37 to looped/cyclic peptides of protein X4 of SARS-CoV Urbani / Binding of serum 6 to linear peptides of protein X5 of SARS-CoV Urbani / Binding of serum 37 to linear peptides of protein X5 of SARS-CoV Urbani / Binding of serum 37 to looped/cyclic peptides of protein X5 of SARS-CoV Urbani / Binding of serum 6 to linear peptides of protein N of SARS-CoV Urbani / Binding of serum 37 to linear peptides of protein N of SARS-CoV Urbani / Binding of serum 6 to linear peptide (PEPSCAN-ELISA) / Binding of serum 1a to looped/cyclic peptides of protein N of SARS-CoV Urbani / Binding of serum 1b to looped/cyclic peptides of protein N of SARS-CoV Urbani / Binding of serum 2 to looped/cyclic peptides of protein N of SARS-CoV Urbani / Binding of serum 6 to looped/cyclic peptides of protein N of SARS-CoV Urbani / Binding of serum 37 to looped/cyclic peptides of protein N of SARS-CoV Urbani / Binding of serum 62 to looped/cyclic peptides of protein N of SARS-CoV Urbani / Binding of serum London to looped/cyclic peptides of protein N of SARS-CoV Urbani / Binding of serum SARS-green to looped/cyclic peptides of protein N of SARS-CoV Urbani: unit not given here
[2] = system: control sera (pooled serum of ten healthy LUMC hospital workers; commercial negative donor pooled serum from the Dutch bloodbank); assay type: binding, human; set-up: Binding of Control serum LUMC to linear peptides / Binding of Control serum Blood-bank to linear peptides / Binding of Control serum LUMC to looped peptides / Binding of Control Serum Blood-Bank to Looped peptides / Binding of Control serum LUMC to linear peptides of the protein M of SARS-CoV Urbani / Binding of Control serum Blood-bank to linear peptides of the protein M of SARS-CoV Urbani / Binding of Control serum LUMC to looped peptides of the protein M of SARS-CoV Urbani / Binding of Control Serum Blood-Bank to Looped peptides of the protein M of SARS-CoV Urbani: unit not given here
[3] = system: rabbit serum obtained by immunizing a rabbit with the SARS-CoV strain Frankfurt 1; assay type: binding; set-up: Binding of a rabbit serum to linear peptides / Binding of a rabbit serum to looped peptides / Rabbit serum linear peptides / Rabbit serum looped peptides / Binding of a rabbit serum to linear peptides of protein N of SARS-CoV Urbani (Rabbit serum linear peptides) / Binding of a rabbit serum to looped/cyclic peptides of protein N of SARS-CoV Urbani (Rabbit serum looped peptides): unit not given here
[4] = system: recombinant human anti-SARS-CoV antibody 03-018; assay type: binding; set-up: Binding of antibody 03-018 to linear peptides of the N protein of SARS-CoV Urbani / Binding of antibody 03-018 to looped/cyclic peptides of the N protein of SARS-CoV Urbani: unit not given here

| Sequence | Binding of serum 1a to linear peptides of protein N of SARS-CoV Urbani [1] | Binding of serum 1a to looped/cyclic peptides of protein N of SARS-CoV Urbani [1] | Binding of serum 1b to linear peptides of protein N of SARS-CoV Urbani [1] | Binding of serum 1b to looped/cyclic peptides of protein N of SARS-CoV Urbani [1] | Binding of serum 2 to linear peptides of protein N of SARS-CoV Urbani [1] | Binding of serum 2 to looped/cyclic peptides of protein N of SARS-CoV Urbani [1] | Binding of serum 6 to looped/cyclic peptides of protein N of SARS-CoV Urbani [1] | Binding of serum 37 to looped/cyclic peptides of protein N of SARS-CoV Urbani [1] | Binding of serum 62 to looped/cyclic peptides of protein N of SARS-CoV Urbani [1] | Binding of serum London to looped/cyclic peptides of protein N of SARS-CoV Urbani [1] | Binding of serum SARS-green to looped/cyclic peptides of protein N of SARS-CoV Urbani [1] | Binding of serum SARS-yellow to looped/cyclic peptides of protein N of SARS-CoV Urbani [1] | Binding of a rabbit serum to linear peptides of protein N of SARS-CoV Urbani (Rabbit serum linear peptides) [3] | Binding of a rabbit serum to looped/cyclic peptides of protein N of SARS-CoV Urbani (Rabbit serum looped peptides) [3] | Binding of antibody 03-018 to linear peptides of the N protein of SARS-CoV Urbani [4] | Binding of antibody 03-018 to looped/cyclic peptides of the N protein of SARS-CoV Urbani [4] | Binding of Control Serum Blood-Bank to Looped peptides [2] | Binding of Control serum Blood-bank to linear peptides [2] | Binding of Control serum LUMC to linear peptides [2] | Binding of Control serum LUMC to looped peptides [2] | also measured |
| --- | --- | --- | --- | --- | --- | --- | --- | --- | --- | --- | --- | --- | --- | --- | --- | --- | --- | --- | --- | --- | --- |
| AQFAPSASAFFGMSR | 0.2 | 0.3 | 0.1 | 0.2 | 0.1 | 0.6 | 0.5 | 0.8 | 0.6 | 2.1 | 0.2 | 0.4 | 0.1 | 0.7 | 0.1 | 0.3 | – | – | – | – | Binding of serum 6 to linear peptides of protein N of SARS-CoV Urbani [1]: 0.1; Binding of serum 37 to linear peptides of protein N of SARS-CoV Urbani [1]: 0.5; Binding of serum 62 to linear peptides of protein N of SARS-CoV Urbani [1]: 0.4; Binding of serum London to linear peptides of protein N of SARS-CoV Urbani [1]: 0.4; Binding of serum SARS-green to linear peptides of protein N of SARS-CoV Urbani [1]: 0.1; Binding of serum SARS-yellow to linear peptides of protein N of SARS-CoV Urbani [1]: 0.6; Control Serum Blood-Bank Looped peptides [2]: 0.8; Control serum Blood-bank linear peptides [2]: 0.7; Control serum LUMC linear peptides [2]: 0.5; Control serum LUMC looped peptides [2]: 0.6 |
| VRGGDGKMKELSPRW | 0.2 | 0.3 | 0.1 | 0.2 | 0.2 | 0.5 | 0.2 | 0.6 | 0.6 | 0.5 | 0.1 | 0.3 | 0.2 | 0.4 | 0.1 | 0.2 | 0.7 | 0.6 | 0.8 | 0.7 | Binding of serum 6 to linear peptides of protein N of SARS-CoV Urbani [1]: 0.2; Binding of serum 37 to linear peptides of protein N of SARS-CoV Urbani [1]: 0.6; Binding of serum 62 to linear peptides of protein N of SARS-CoV Urbani [1]: 0.6; Binding of serum London to linear peptides of protein N of SARS-CoV Urbani [1]: 0.4; Binding of serum SARS-green to linear peptides of protein N of SARS-CoV Urbani [1]: 0.4; Binding of serum SARS-yellow to linear peptides of protein N of SARS-CoV Urbani [1]: 0.7 |
| GFYAEGSRGGSQASS | – | 0.3 | – | 0.2 | – | 0.4 | 0.3 | 0.3 | 0.2 | 0.3 | 0.3 | 0.1 | 0.1 | 0.0 | 0.1 | 0.2 | 0.5 | 0.7 | 0.6 | 0.5 | Binding of serum 1a to linear peptide (PEPSCAN-ELISA) [1]: 0.3; Binding of serum 1b to linear peptide (PEPSCAN-ELISA) [1]: 0.1; Binding of serum 2 to linear peptide (PEPSCAN-ELISA) [1]: 0.2; Binding of serum 6 to linear peptide (PEPSCAN-ELISA) [1]: 0.4; Binding of serum 37 to linear peptide (PEPSCAN-ELISA) [1]: 0.7; Binding of serum 62 to linear peptide (PEPSCAN-ELISA) [1]: 0.5; Binding of serum London to linear peptide (PEPSCAN-ELISA) [1]: 0.4; Binding of serum SARS-green to linear peptide (PEPSCAN-ELISA) [1]: 0.1; Binding of serum SARS-yellow to linear peptide (PEPSCAN-ELISA) [1]: 0.4 |
| GDQDLIRQGTDYKHW | – | 0.4 | – | 0.2 | – | 0.4 | 0.3 | 0.6 | 0.5 | 0.4 | 0.4 | 0.3 | 0.1 | 0.5 | 0.1 | 0.2 | 0.6 | 0.9 | 0.8 | 0.5 | Binding of serum 1a to linear peptide (PEPSCAN-ELISA) [1]: 0.2; Binding of serum 1b to linear peptide (PEPSCAN-ELISA) [1]: 0.1; Binding of serum 2 to linear peptide (PEPSCAN-ELISA) [1]: 0.2; Binding of serum 6 to linear peptide (PEPSCAN-ELISA) [1]: 0.3; Binding of serum 37 to linear peptide (PEPSCAN-ELISA) [1]: 0.6; Binding of serum 62 to linear peptide (PEPSCAN-ELISA) [1]: 0.7; Binding of serum London to linear peptide (PEPSCAN-ELISA) [1]: 0.9; Binding of serum SARS-green to linear peptide (PEPSCAN-ELISA) [1]: 0.5; Binding of serum SARS-yellow to linear peptide (PEPSCAN-ELISA) [1]: 0.7 |
| QTQGNFGDQDLIRQG | – | 0.5 | – | 0.4 | – | 0.5 | 0.3 | 0.9 | 0.9 | 0.6 | 0.4 | 0.8 | 0.1 | 0.6 | 0.1 | 0.2 | 0.8 | 0.9 | 0.9 | 0.7 | Recognition of the peptide by sera of SARS-CoV infected individuals, and form (linear, looped/cyclic) in which it is recognized [1]: recognized in linear form |
